Experimental data published in patent US20240325531A1, “CAR T/NK-CELLS FOR USE IN THE TREATMENT OF INVASIVE FUNGAL INFECTIONS” (UNIVERSITAT DE BARCELONA, priority 2021, published 2024).

How the values were obtained:
Fusarium petroliphilum [1] = assay: Treatment of a patient with fusariosis (compassionate, first-in-human use); assay type: in vivo; details: one patient; liposomal amphotericin-B, terbinafine and voriconazole given together, before cell therapy
Description: Since admission, liposomal amphotericin-B was initiated and after fusariosis diagnosis, terbinafine and voriconazole were added.

Fusarium petroliphilum [2] = assay: Antifungal resistance tests (MIC) on the patient's mold; assay type: cell-based; details: Fusarium petroliphilum from the patient's skin biopsy; no clinical breakpoints established; read-out: minimum inhibitory concentrations (MIC)
Description: The patient was admitted to the hospital for fever, muscle pain, and polytopic erythematous plaques/nodules on the trunk and extremities, some of them with central pustules. […] Blood cultures were negative. Galactomannan and β-D-glucan were negative. […] Bronchoscopy was performed but all results were negative.

[3] = tested on: acute panmyelosis with myelofibrosis; assay: Patient's earlier treatment of relapsed haematological disease; assay type: in vivo, human; details: venetoclax plus azacytidine, after the first two cycles, one patient

SMILES	clinical course under antifungal drugs (Fusarium petroliphilum [1])	MIC (Fusarium petroliphilum [2])	response of haematological disease [3]
C[C@@H](c1ncncc1F)[C@](O)(Cn1cncn1)c1ccc(F)cc1F [voriconazole]	remained febrile, with appearance of new skin lesions and mild worsening of the chest CT images	> 8 µg/mL	–
CC[C@@H]([C@H](C)O)n1ncn(-c2ccc(N3CCN(c4ccc(OC[C@@H]5CO[C@@](Cn6cncn6)(c6ccc(F)cc6F)C5)cc4)CC3)cc2)c1=O [posaconazole]	–	> 8 µg/mL	–
Nc1ncn([C@@H]2O[C@H](CO)[C@@H](O)[C@H]2O)c(=O)n1 [azacytidine]	–	–	partial response
CN(C/C=C/C#CC(C)(C)C)Cc1cccc2ccccc12 [terbinafine]	remained febrile, with appearance of new skin lesions and mild worsening of the chest CT images	–	–
C[C@@H](c1nc(-c2ccc(C#N)cc2)cs1)[C@](O)(Cn1cncn1)c1cc(F)ccc1F [isavuconazole]	–	> 8 µg/mL	–
